Experimental data: the supplement of paper PMC10307832

Columns and labels:
Shikonin + Foretinib = compound: CC(C)=CC[C@@H](O)C1=CC(=O)c2c(O)ccc(O)c2C1=O [Shikonin] + COc1cc2c(Oc3ccc(NC(=O)C4(C(=O)Nc5ccc(F)cc5)CC4)cc3F)ccnc2cc1OCCCN1CCOCC1 [Foretinib] (partner 0.25 µM); assay: relative viability (nuclei count vs DMSO), 5 days (fraction); higher = more cells survive
Procedure, shortened: (§1)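 Lung cancer cell lines were pin-tool dosed in 1536-well plates on the day after seeding, with either a lone drug or a fixed anchor-drug dose plus five library-drug doses (not always all listed) in √10 steps. Nuclei were counted on 4× images after 5 days. Relative viability is the ratio of treated-well to vehicle-well nuclei counts, with each value a median of duplicate plates.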

[1] = compound: CC(C)N(CCCNC(=O)Nc1ccc(C(C)(C)C)cc1)C[C@H]1O[C@@H](n2ccc3c(N)ncnc32)[C@H](O)[C@@H]1O + Cc1cc(Nc2cc(N3CCN(C)CC3)nc(Sc3ccc(NC(=O)C4CC4)cc3)n2)n[nH]1 [Tozasertib] (partner 0.1 µM); assay: as above
Procedure, shortened: as §1

Row | Cell Line | relative viability (Shikonin + Foretinib; first compound 0.01 µM) | relative viability (Shikonin + Foretinib; first compound 0.1 µM) | relative viability (Shikonin + Foretinib; first compound 0.3162 µM) | relative viability (Shikonin + Foretinib; first compound 1 µM) | relative viability ([1]; first compound 0.08 µM) | relative viability ([1]; first compound 0.253 µM) | relative viability ([1]; first compound 0.8 µM) | relative viability ([1]; first compound 2.53 µM) | relative viability ([1]; first compound 8 µM)
1 | NCI-H1975 | 1 | 0.921 | 0.947 | 0.973 | 0.696 | 0.765 | 0.741 | 0.597 | 0.569
2 | CAL-12T | 1.02 | 1.08 | 1.23 | 1.16 | 0.326 | 0.315 | 0.309 | 0.293 | 0.29
3 | NCI-H1623 | 0.874 | 0.866 | 1.06 | 0.917 | 0.426 | 0.452 | 0.414 | 0.408 | 0.45
4 | HCC-44 | – | – | – | – | 0.99 | 1.11 | 0.869 | 1.01 | 1.04
5 | EKVX | 0.751 | 0.646 | 1.05 | 0.762 | 0.449 | 0.347 | 0.373 | 0.434 | 0.388
6 | NCI-H1651 | 0.883 | 0.758 | 0.93 | 0.714 | 0.624 | 0.752 | 0.628 | 0.725 | 0.579
7 | NCI-H1944 | 0.94 | 0.954 | 0.989 | 0.94 | 0.253 | 0.261 | 0.251 | 0.239 | 0.246
8 | NCI-H1703 | 0.361 | 0.401 | 0.319 | 0.329 | – | – | – | – | –
9 | Calu-6 | 0.962 | 0.904 | 1.02 | 0.885 | – | – | – | – | –
10 | EBC-1 | 0.0907 | 0.107 | 0.11 | 0.112 | – | – | – | – | –
11 | NCI-H1993 | 0.782 | 0.696 | 0.767 | 0.715 | 0.564 | – | – | 0.624 | 0.591
12 | A-427 | 1.16 | 1.26 | 1.21 | 1.16 | 0.2 | 0.208 | 0.193 | 0.204 | 0.206
13 | NCI-H2405 | 1.06 | 1.08 | 1.15 | 1.03 | 0.706 | 0.82 | 0.783 | 0.822 | 0.703
14 | NCI-H1355 | 1.03 | 1.16 | 1.04 | 1.04 | 0.581 | 0.536 | 0.574 | 0.501 | 0.55
15 | NCI-H358 | 0.651 | 0.729 | 0.707 | 0.604 | 0.112 | 0.117 | 0.119 | 0.0915 | 0.112
16 | SK-LU-1 | 0.869 | 0.907 | 0.863 | 0.788 | 0.35 | 0.41 | 0.352 | 0.49 | 0.346
17 | NCI-H23 | 1.09 | 1.07 | 1.03 | 0.983 | 0.41 | 0.378 | 0.281 | 0.355 | 0.546
18 | HOP-62 | 1.28 | 1.25 | 1.28 | 1.28 | 0.369 | 0.375 | 0.335 | 0.309 | 0.367

Row | Cell Line | relative viability (Shikonin + Foretinib; first compound 0.01 µM) | relative viability (Shikonin + Foretinib; first compound 0.1 µM) | relative viability (Shikonin + Foretinib; first compound 0.3162 µM) | relative viability (Shikonin + Foretinib; first compound 1 µM) | relative viability ([1]; first compound 0.08 µM) | relative viability ([1]; first compound 0.253 µM) | relative viability ([1]; first compound 0.8 µM) | relative viability ([1]; first compound 2.53 µM) | relative viability ([1]; first compound 8 µM)
19 | HARA | 0.936 | 1.13 | 0.865 | 0.883 | 0.097 | 0.13 | 0.109 | 0.0913 | 0.0981
20 | PC-3 [JPC-3] | 1.06 | 1.16 | 1.1 | 1.1 | 0.856 | 0.976 | 0.831 | 0.851 | 0.763
21 | NCI-H1755 | 0.932 | 1.02 | 0.967 | 0.956 | 0.637 | 0.564 | 0.464 | 0.573 | 0.54
22 | HCC-78 | 0.562 | 0.621 | 0.614 | 0.627 | 0.371 | 0.383 | 0.351 | 0.366 | 0.484
23 | IA-LM | 1.14 | 1.42 | 1.32 | 1.15 | – | – | – | – | –
24 | NCI-H441 | 0.941 | 1.17 | 0.849 | 1.04 | 0.599 | 0.66 | – | 0.716 | 0.577
25 | NCI-H322M | 0.996 | 1.37 | 1.06 | 0.99 | 0.484 | 0.434 | 0.493 | 0.499 | 0.499
26 | NCI-H520 | 0.801 | 0.759 | 0.8 | 0.696 | 0.453 | 0.512 | – | 0.416 | 0.437
27 | COR-L23 | 1.05 | 0.813 | 1.03 | 0.988 | 0.208 | 0.195 | 0.256 | 0.23 | 0.201
28 | NCI-H2126 | 1.06 | 1.2 | 1.18 | 1.43 | 0.844 | 0.834 | 0.812 | 0.843 | 0.786
29 | LC-2-ad | 0.869 | 0.989 | 1.04 | 1.01 | 0.475 | 0.432 | 0.442 | 0.485 | 0.41
30 | NCI-H1915 | 1.13 | 1.12 | 1.15 | 1.2 | 0.443 | 0.401 | 0.434 | 0.388 | 0.426
31 | NCI-H1793 | 0.783 | 0.737 | 0.792 | 0.59 | 0.345 | – | 0.356 | 0.33 | 0.386
32 | NCI-H1299 | 1.08 | 1.15 | 1.09 | 1.09 | – | – | – | – | –
33 | NCI-H1648 | – | – | – | – | 0.445 | 0.425 | 0.534 | 0.387 | 0.495
34 | NCI-H522 | – | – | – | – | 0.538 | 0.553 | 0.542 | 0.588 | 0.615
35 | A549 | 1.05 | 1.03 | 1.16 | 1.11 | – | – | – | – | –
36 | NCI-H1563 | 0.935 | 0.848 | 1.06 | 0.902 | – | – | – | – | –
